Experimental findings from patent US5342942A, “Pyrazoloquinazolone derivatives as neurotrophic agents” (Warner-Lambert Company, priority 1993, dated 1994) are described below.

Structures can show the parent of a compound that is named as a salt.

T2 sequence (P01138 122-241): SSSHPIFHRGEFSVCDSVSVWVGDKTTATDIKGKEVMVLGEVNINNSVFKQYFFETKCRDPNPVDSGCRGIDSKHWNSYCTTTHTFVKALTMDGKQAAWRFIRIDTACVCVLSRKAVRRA

In the first experiment the test system is NGF receptors. Description: direct binding to NGF receptors with radioiodinated derivative of Compound 3 (FIG. 5). The following applies: utilizing a radioiodinated derivative of Compound 3 (corresponding to Example 3j). From the text:
(§1) In principle, a compound may inhibit the binding of NGF to the p75 receptor by interacting with either protein. The compounds of the present invention are studied further as exemplified here with the compound of Example 3.
As for `Cn1c2ccc(NC(=O)c3ccccc3)cc2c(=O)n2nc(C(=O)O)cc12` [Example 3, 7-(Benzoylamino)-4,9-dihydro-4-methyl-9-oxopyrazolo-[5,1-b]quinazoline-2-carboxylic acid], the “direct binding to NGF receptors” value is recorded as “does not bind to NGF receptors directly”.

The target of a further experiment is T1, extracellular domain of the p75 receptor (Homo sapiens, UniProt P01138).
T1 construct: purchased Chiron Corporation, Emeryville, Calif; (originally); also commercially available from Austral Biologicals, Inc. (San Diego, Calif.)
T1 sequence (P01138 122-241): as above
Description: inhibition of ^125 I-NGF binding to the extracellular domain of the p75 receptor (truncated form, residues 1-222, microtiter plate). The following applies: FIG. 1, result in words. The method, then:
(§2) Assays of novel compounds are performed by measuring the compounds' ability to inhibit the binding of NGF to the NGF p75 receptor, using a truncated form (Residues 1-222, molecular weight=56 KDa) of the p75 receptor, originally obtained from Chiron Corporation, Emeryville, Calif., but also commercially available from Austral Biologicals, Inc. (San Diego, Calif.), on plastic 96-well microtiter plates (Immulon 11 Dynatech). The wells are coated with 50 μL/well of 20 μg/mL streptavidin in a […] (DPBS). The plates are then incubated at room temperature for 6 hours. The excess streptavidin is then poured out, the wells are washed with a 0.1% solution of bovine serum albumin (BSA) in DPBS. To each well is then added 50 μg/mL of a DPBS solution containing the truncated p75 receptor, which has previously been reacted with biotin by standard procedures. The plates are then incubated at room temperature for 2 hours and washed with 0.2% BSA/DPBS. To each well is added 98 μL of 2 nM ^125 I-NGF, followed by 2 μL/well of a concentration of test compound that is 50 times greater than the desired final test concentration. The plates are incubated for 2 hours at room temperature. The assay is read as the IC50, the concentration of compound that blocks 50% of the binding of ^125 I-NGF to the p75 receptor. […]
For `Cn1c2ccc(NC(=O)c3ccccc3)cc2c(=O)n2nc(C(=O)O)cc12` [Example 3, 7-(Benzoylamino)-4,9-dihydro-4-methyl-9-oxopyrazolo-[5,1-b]quinazoline-2-carboxylic acid], the “prevention of binding of ^125 I-NGF to the extracellular domain of p75” value is “prevents the binding of ^125 I-NGF to the extracellular domain of p75”.

Another experiment has as its target T2, extracellular domain of the p75 receptor (Homo sapiens).
T2 construct: purchased Chiron Corporation, Emeryville, Calif; (originally); also commercially available from Austral Biologicals, Inc. (San Diego, Calif.)
The description is as above. The following applies: 2 nM ^125 I-NGF, 2 hours at room temperature; read-out: Concentration (IC50, nM): inhibition of ^125 I-NGF binding to the extracellular domain of the p75 receptor. The method, then:
as §2
Regarding `Cn1c2ccc(NC(=O)c3ccc(-c4ccccc4)cc3)cc2c(=O)n2nc(C(=O)O)cc12` [Example 3q, 7-[[(1,1'-Biphenyl)-4-ylcarbonyl]amino]-4,9-dihydro-4-methyl-9-oxopyrazolo[5,1-b]quinazoline-2-carboxylic acid], the IC50 came to 222 nM. Still for that read-out and setting: the same measure for `Cc1ccc2c(c1)c(=O)n1nc(C(=O)O)cc1n2C` [Me Me H]: 9700 nM; for `Cn1c2ccc(NC(=O)c3ccc4ccccc4c3)cc2c(=O)n2nc(C(=O)O)cc12` [Example 3i]: 431 nM; for `Cc1ccc(C(=O)Nc2ccc3c(c2)c(=O)n2nc(C(=O)O)cc2n3C)cc1` [Example 3b, 4,9-Dihydro-4-methyl-9-oxo-7-[(4-methylbenzoyl)amino]-pyrazolo[5,1-b]quinazoline-2-carboxylic acid]: 180 nM. For the compound `CC(=O)Nc1ccc2c(c1)c(=O)n1nc(C(=O)O)cc1n2C` [Me CH3 CONH H], the IC50 was 1700 nM.

For the compound `Cn1c2ccc(NC(=O)CCC(=O)O)cc2c(=O)n2nc(C(=O)O)cc12` [Example 3w, 7-[(3-Carboxy-1-oxopropyl)amino]-4,9-dihydro-4-methyl-9-oxopyrazolo[5,1-b]qruinazoline-2-carboxylic acid], the IC50 was determined as 116 nM. Consider `Cn1c2ccc(NC(=O)c3ccc(Cl)cc3)cc2c(=O)n2nc(C(=O)O)cc12` [Example 3d, 7-[(4-Chlorobenzoyl)amino]-4,9-dihydro-4-methyl-9-oxopyrazolo [5,1-b]quinazoline-2-carboxylic acid], for which the IC50 worked out at 250 nM. As for `Cn1c2ccc(NC(=O)c3ccc(Cl)c(Cl)c3)cc2c(=O)n2nc(C(=O)O)cc12` [Example 3f, 7-[(3,4-Dichlorobenzoyl)amino]-4,9-dihydro-4-methyl-9-oxopyrazolo[5,1-b]quinazoline-2-carboxylic acid], the IC50 stood at 844 nM. For `Cn1c2ccc(NC(=O)CCCC(=O)O)cc2c(=O)n2nc(C(=O)O)cc12` [Example 3x, 7-[(4-Carboxy-1-oxobutyl)amino]-4,9-dihydro-4-methyl-9-oxopyrazolo[5,1-b]quinazoline-2-carboxylic acid], the IC50 is 36 nM. For the compound `Cn1c2ccc(NC(=O)Nc3ccccc3)cc2c(=O)n2nc(C(=O)O)cc12` [Example 3g], the IC50 was determined as 3880 nM. With `Cn1c2ccc(NC(=O)c3ccc(I)cc3)cc2c(=O)n2nc(C(=O)O)cc12` [Example 3j, 4,9-Dihydro-7-[(4-iodobenzoyl)amino]-4-methyl-9-oxopyrazolo[5,1-b]quinazoline-2-carboxylic acid], the IC50 stood at 472 nM. Take `Nc1ccc2[nH]c3cc(C(=O)O)nn3c(=O)c2c1` [H NH2 H]: the IC50 worked out at 338 nM.

With `Cn1c2ccc(NC(=O)c3ccc(F)cc3)cc2c(=O)n2nc(C(=O)O)cc12` [Example 3s, 4,9-Dihydro-7-[(4-fluorobenzoyl)amino]-4-methyl-9-oxopyrazolo[5,1-b]quinazoline-2-carboxylic acid], the IC50 came to 266 nM. For the compound `Cc1ccccc1C(=O)Nc1ccc2c(c1)c(=O)n1nc(C(=O)O)cc1n2C` [Example 3r, 4,9-Dihydro-4-methyl-7-[(2-methylbenzoyl)amino]-9-oxopyrazolo[5,1-b]quinazoline-2-carboxylic acid], the IC50 is over 10000 nM.

On to `Cn1c2ccc(NC(=O)c3ccc(C(C)(C)C)cc3)cc2c(=O)n2nc(C(=O)O)cc12` [Example 3l, 7-[(4-tert-Butylbenzoyl)amino]-4,9-dihydro-4-methyl-9-oxopyrazolo[5,1-b]quinazoline-2-carboxylic acid], for which the IC50 amounted to 862 nM.

As for `Cn1c2ccccc2c(=O)n2nc(C(=O)O)cc12` [Me H H], the IC50 turned out to be 30800 nM.

Turning to `Cn1c2ccc(NC(=O)c3ccc([N+](=O)[O-])cc3)cc2c(=O)n2nc(C(=O)O)cc12` [Example 3k, 4,9-Dihydro-4-methyl-7-[(4-nitrobenzoyl)amino]-9-oxopyrazolo[5,1-b]quinazoline-2-carboxylic acid], the IC50 amounted to 229 nM. Turning to `Cn1c2ccc(NC(=O)CC(=O)O)cc2c(=O)n2nc(C(=O)O)cc12` [Example 3v, 7-[(Carboxyacetyl)amino]-4,9-dihydro-4-methyl-9-oxopyrazolo[5,1-b]quinazoline-2-carboxylic acid], the IC50 came to 1150 nM.

On to `Cc1ccc(C(=O)Nc2ccc3c(c2)c(=O)n2nc(C(=O)O)cc2n3C)cc1` [Example 7, 4,9-Dihydro-4-methyl-9-oxo-7-[(methylbenzoyl)amino]-pyrazolo[5,1-b]quinazoline-2-carboxylic acid; triethanolamine salt (1:1)], for which the IC50 came out at 1160 nM. As to `O=C(O)c1ccc2c(=O)n3nc(C(=O)O)cc3[nH]c2c1` [H H CO2 H], the IC50 was 1100 nM. On the same count and under the same terms, for `Cn1c2ccc(NC(=O)CCc3ccccc3)cc2c(=O)n2nc(C(=O)O)cc12` [Example 3h, 4,9-Dihydro-4-methyl-9-oxo-7[(1-oxo-3-phenylpropyl) -amino]pyrazolo [5,1-b]quinazoline-2-carboxylic acid] the value was 1710 nM. Consider `COc1ccc(C(=O)Nc2ccc3c(c2)c(=O)n2nc(C(=O)O)cc2n3C)cc1` [Example 3c, 4,9-Dihydro-4-methyl-9-oxo-7-[(4-methoxybenzoyl)amino]-pyrazolo[5,1-b]quinazoline-2-carboxylic acid], for which the IC50 came out at 10000 nM. For `Cc1ccc2[nH]c3cc(C(=O)O)nn3c(=O)c2c1` [H Me H], the IC50 came out at 12900 nM.

As for `Cn1c2ccc(NC(=O)c3cccs3)cc2c(=O)n2nc(C(=O)O)cc12` [Example 3a, 4,9-Dihydro-4-methyl-9-oxo-7-[(2-thienylcarbonyl)amino]pyrazolo[5,1-b]quinazoline-2-carboxylic acid], the IC50 came out at 690 nM. Same read-out and setting: for `Cn1c2ccc(NC(=O)c3ccc(C(F)(F)F)cc3)cc2c(=O)n2nc(C(=O)O)cc12` [Example 3n, 4,9-Dihydro-4-methyl-9-oxo-7-[[(4-trifluoromethyl)benzoyl]amino]pyrazolo [5,1-b]quinazoline-2-carboxylic acid] the value was 2570 nM; for `Cc1ccc(C(=O)Nc2ccc3c(c2)c(=O)n2nc(C(=O)O)cc2n3C)cc1I` [Example 3u, 4,9-Dihydro-7-[(3-iodo-4-methylbenzoyl)amino]-4-methyl-9-oxopyrazolo[5,1-b]quinazoline-2-carboxylic acid], about 200 nM; for `Cn1c2ccc(NC(=O)c3ccccc3)cc2c(=O)n2nc(C(=O)O)cc12` [Example 3, 7-(Benzoylamino)-4,9-dihydro-4-methyl-9-oxopyrazolo-[5,1-b]quinazoline-2-carboxylic acid], 228 nM. In the case of `Cn1c2ccc(NC(=O)Cc3ccccc3)cc2c(=O)n2nc(C(=O)O)cc12` [Example 3e, 4,9-Dihydro-4-methyl-9-oxo-7-[(phenylacetyl)aminol]-pyrazolo[5,1-b]quinazoline-2-carboxylic acid], the IC50 was determined as 568 nM. As for `Cn1c2ccc(N)cc2c(=O)n2nc(C(=O)O)cc12` [Example 1, 7-Amino-4,9-dihydro-4-methyl-9-oxopyrazolo[5,1-b]-quinazoline-2-carboxylic acid], the IC50 is 1900 nM. For the compound `Cc1cccc(C(=O)Nc2ccc3c(c2)c(=O)n2nc(C(=O)O)cc2n3C)c1` [Example 3p, 4,9-Dihydro-4-methyl-7-[(3-methylbenzoyl)amino]-9-oxopyrazolo[5,1-b]quinazoline-2-carboxylic acid], the IC50 was 748 nM. Consider `Cn1c2ccc(NC(=O)C34CC5CC(CC(C5)C3)C4)cc2c(=O)n2nc(C(=O)O)cc12` [Example 3m, 4,9-Dihydro-4-methyl-9-oxo-7-[(tricyclo[3.3.1.1^3,7]-dec-1-ylcarbonyl)amino]pyrazolo[5,1-b]quinazoline-2-carboxylic acid], for which the IC50 is 2230 nM.

For `Cn1c2ccc(NC(=O)c3ccc(C(=O)O)cc3)cc2c(=O)n2nc(C(=O)O)cc12` [Example 3t], the IC50 is 166 nM.

The test system of a further experiment is NGF. Description: interaction with NGF bound to a sepharose support (FIG. 6). The class given is binding.
Conditions: not given
From the text: as §1
Turning to `Cn1c2ccc(NC(=O)c3ccccc3)cc2c(=O)n2nc(C(=O)O)cc12` [Example 3, 7-(Benzoylamino)-4,9-dihydro-4-methyl-9-oxopyrazolo-[5,1-b]quinazoline-2-carboxylic acid], the “specific interaction with NGF” value was “specific interaction between Compound 3 and NGF”.

The test system of a further experiment is PC12 cells that express both p75 and trk. Description: inhibition of ^125 I-NGF binding in PC12 cells that express both p75 and trk (FIG. 3). The following applies: p75 about 80% and trk about 20% of total NGF receptors.
From the text: as §1
Turning to `Cn1c2ccc(NC(=O)c3ccccc3)cc2c(=O)n2nc(C(=O)O)cc12` [Example 3, 7-(Benzoylamino)-4,9-dihydro-4-methyl-9-oxopyrazolo-[5,1-b]quinazoline-2-carboxylic acid], the “block of ^125 I-NGF binding in PC12 cells” value is “about 80%”.

In a further experiment the test system is p75. Description: inhibition of crosslinking of ^125 I-NGF to p75 (FIG. 4). The format is binding.
Conditions: not given
From the text: as §1
Turning to `Cn1c2ccc(NC(=O)c3ccccc3)cc2c(=O)n2nc(C(=O)O)cc12` [Example 3, 7-(Benzoylamino)-4,9-dihydro-4-methyl-9-oxopyrazolo-[5,1-b]quinazoline-2-carboxylic acid], the “inhibition of crosslinking of ^125 I-NGF to p75” value is “can inhibit the crosslinking of ^125 I-NGF to p75”.

For a further experiment, the system named is full length p75 receptor. Description: inhibition of ^125 I-NGF binding to full length p75 receptor expressed in CHO cells that lack trk (FIG. 2). The following applies: CHO cells that lack trk expression.
From the text: as §1
On to `Cn1c2ccc(NC(=O)c3ccccc3)cc2c(=O)n2nc(C(=O)O)cc12` [Example 3, 7-(Benzoylamino)-4,9-dihydro-4-methyl-9-oxopyrazolo-[5,1-b]quinazoline-2-carboxylic acid], for which the “prevention of binding of ^125 I-NGF to full length p75 receptor” value is “completely prevents binding of ^125 I-NGF to full length p75 receptor”.
